# Target: T1, human CRTH2 (Homo sapiens, UniProt Q9Y5Y4)
# T1 sequence (Q9Y5Y4 1-395): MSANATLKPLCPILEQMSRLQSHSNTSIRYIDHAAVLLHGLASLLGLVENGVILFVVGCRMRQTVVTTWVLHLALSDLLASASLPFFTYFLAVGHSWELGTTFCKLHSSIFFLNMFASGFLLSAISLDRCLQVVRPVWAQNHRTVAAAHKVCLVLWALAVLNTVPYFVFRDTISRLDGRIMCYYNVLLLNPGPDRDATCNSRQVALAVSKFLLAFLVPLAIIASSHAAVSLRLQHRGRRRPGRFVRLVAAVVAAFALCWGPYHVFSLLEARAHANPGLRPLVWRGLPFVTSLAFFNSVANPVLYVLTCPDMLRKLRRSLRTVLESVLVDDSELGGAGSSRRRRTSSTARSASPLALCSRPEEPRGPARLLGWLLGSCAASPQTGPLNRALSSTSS
# Test: Human CRTH2 Receptor Binding Assay (whole cell, [3H]ramatroban competition)
# Design: two mammalian expression vectors that harbored human CRTH2 and G-alpha16 cDNAs; expressed in transfected cells
# Details: CHO-K1 cells expressing human CRTH2 and G-alpha16; 20 nM [3H]ramatroban; 1 hour, room temperature
# Description: A whole cell receptor binding assay using [^3H]ramatroban as the competing radioactive ligand was employed to evaluate the compound binding activity to human CRTH2. The radioactive ligand [^3H]ramatroban was synthesized according to Sugimoto et. al. (Eur. J. Pharmacol. 2005, 524, 30-37) to a specific activity of 42 Ci/mmol
# A cell line stably expressing human CRTH2 was established by transfecting CHO-K1 cells with two mammalian expression vectors that harbored human CRTH2 and G-alpha16 cDNAs, respectively, using FuGene® 6 transfection reagent (from Roche). Stable clones expressing CRTH2 were selected by staining each clone with BM16 (BD Pharmingen™ from BD Biosciences, a division of Becton, Dickinson and Company), which is a rat monoclonal antibody to human CRTH2. The cells were maintained as monolayer cultures in Ham's F-12 medium containing 10% fetal bovine serum, 100 units/mL penicillin, 100 μg/mL streptomycin, 2 mM glutamine, 0.5 mg/mL G418 (geneticin) for CRTH2, and 0.2 mg/mL hygromycin-B (for G-alpha 16). For whole cell receptor binding assay, the monolayer cells were rinsed once with PBS (phosphate buffered saline), dissociated using ethylenediaminetetraacetate (Versene™ EDTA from Lonza Inc.), and suspended in PBS containing 10 mM MgCl2 and 0.06% BSA (bovine serum albumin) at 1.5×10^6 cells/mL.
# The binding reactions (0.2 mL) were performed in 96-well plates at room temperature in PBS containing 1.5×10^5 cells, 10 mM MgCl2, 0.06% BSA, 20 nM [^3H]ramatroban, and test compound at various concentrations. After 1 hour of binding reactions, the cells were harvested on GF™/B filter microplates (microtiter plates with embedded glass fiber from PerkinElmer, Inc.) and washed 5 times with PBS using a Filtermate™ Harvester (a cell harvester that harvests and washes cells from microplates from PerkinElmer, Inc.). The radioactivities bound to the cells were determined using a microplate scintillation counter (TopCount® NXT, from PerkinElmer, Inc.) after adding 50 μL of Microscint™ 20 scintillation fluid (from PerkinElmer, Inc.) to each well of the filter plates. The radioactivity from non-specific binding was determined by replacing compound with 10 μM of 15(R)-15-methyl PGD2 (from Cayman Chemical Company) in the reaction mixtures. The radioactivity bound to the cells in the absence of compound (total binding) was determined by replacing compound with 0.25% of DMSO (dimethyl sulfoxide) in the reaction mixture. Specific binding data were obtained by subtracting the radioactivity of non-specific binding from each binding data.
# The IC50 value is defined as the concentration of the tested compound that is required for 50% inhibition of total specific binding. In order to calculate the IC50 value, the percent inhibition data were determined for 7 concentrations for each compound. The percent inhibition for a compound at each concentration was calculated according to the following formula, [1-(specific binding in the presence of compound)/(total specific binding)]×100. The IC50 value was then obtained by fitting the percent inhibition data to a sigmoidal dose-response (4 parameter logistic) model in the XLfit® software Excel add-in program [from ID Business Solutions Ltd., model 205, where F(x)=(A+(B−A)/(1+((C/x)̂D)))].
row,IC50 [nM],Compound
1,106,"COc1cc(C(F)(F)F)cc(S(=O)(=O)N(C)C2CCCCc3c(OCC(=O)O)cccc32)c1 (centres unmarked) [Example 14, {5-[(3-Methoxy-5-trifluoromethyl-benzenesulfonyl)-methyl-amino]-6,7,8,9-tetrahydro-5H-benzocyclohepten-1-yloxy}-acetic acid]"
2,171,"O=C(O)COc1cccc2c1CCCCC2NS(=O)(=O)c1cc(F)cc(C(F)(F)F)c1 (centres unmarked) [Example 6, [5-(3-Fluoro-5-trifluoromethyl-benzenesulfonylamino)-6,7,8,9-tetrahydro-5H-benzocyclohepten-1-yloxy]-acetic acid]"
3,24.3,"CSc1cccc(-c2ccc(S(=O)(=O)NC3CCCCc4c(OCC(=O)O)cccc43)cc2)c1 (centres unmarked) [Example 27, [5-(3′-Methylsulfanyl-biphenyl-4-sulfonylamino)-6,7,8,9-tetrahydro-5H-benzocyclohepten-1-yloxy]-acetic acid]"
4,50.3,"CS(=O)(=O)c1cc(S(C)(=O)=O)cc(S(=O)(=O)NC2CCCCc3c(OCC(=O)O)cccc32)c1 (centres unmarked) [Example 10, [5-(3,5-Bis-methanesulfonyl-benzenesulfonylamino)-6,7,8,9-tetrahydro-5H-benzocyclohepten-1-yloxy]-acetic acid]"
5,189,"CN(C1CCCCc2c(OCC(=O)O)cccc21)S(=O)(=O)c1ccc(-c2cccc(S(C)(=O)=O)c2)cc1 (centres unmarked) [Example 30, {5-[(3′-Methanesulfonyl-biphenyl-4-sulfonyl)-methyl-amino]-6,7,8,9-tetrahydro-5H-benzocyclohepten-1-yloxy}-acetic acid]"
6,987,"CN(C1CCCCc2c(OCC(=O)O)cccc21)S(=O)(=O)c1ccc(-c2ccc(O)cc2)cc1 (centres unmarked) [Example 24, {5-[(4′-Hydroxy-biphenyl-4-sulfonyl)-methyl-amino]-6,7,8,9-tetrahydro-5H-benzocyclohepten-1-yloxy}-acetic acid]"
7,64.6,"CN(C1CCCCc2c(OCC(=O)O)cccc21)S(=O)(=O)c1cc(F)cc(C(F)(F)F)c1 (centres unmarked) [Example 7, {5-[(3-Fluoro-5-trifluoromethyl-benzenesulfonyl)-methyl-amino]-6,7,8,9-tetrahydro-5H-benzocyclohepten-1-yloxy}-acetic acid]"
8,2120,"CN(C1CCCCc2c(OCC(=O)O)cccc21)S(=O)(=O)c1ccc(-c2cccc(CCO)c2)cn1 (centres unmarked) [Example 38, [5-({5-[3-(2-Hydroxy-ethyl)-phenyl]-pyridine-2-sulfonyl}-methyl-amino)-6,7,8,9-tetrahydro-5H-benzocyclohepten-1-yloxy]-acetic acid]"
9,106,"CC(C)c1cccc(-c2ccc(S(=O)(=O)N(C)C3CCCCc4c(OCC(=O)O)cccc43)cc2)c1 (centres unmarked) [Example 20, {5-[(3′-Isopropyl-biphenyl-4-sulfonyl)-methyl-amino]-6,7,8,9-tetrahydro-5H-benzocyclohepten-1-yloxy}-acetic acid]"
10,845,"CC(C)c1cccc(-c2cccc(S(=O)(=O)N(C)C3CCCCc4c(OCC(=O)O)cccc43)c2)c1 (centres unmarked) [Example 42, {5-[(3′-Isopropyl-biphenyl-3-sulfonyl)-methyl-amino]-6,7,8,9-tetrahydro-5H-benzocyclohepten-1-yloxy}-acetic acid]"
11,3.3,"CC(=O)c1cc(C(F)(F)F)cc(S(=O)(=O)NC2CCCCc3c(OCC(=O)O)cccc32)c1 (centres unmarked) [Example 15, [5-(3-Acetyl-5-trifluoromethyl-benzenesulfonylamino)-6,7,8,9-tetrahydro-5H-benzocyclohepten-1-yloxy]-acetic acid]"
12,298,"CC(C)c1cc(C(F)(F)F)cc(S(=O)(=O)NC2CCCCc3c(OCC(=O)O)cccc32)c1 (centres unmarked) [Example 43, [5-(3-Isopropyl-5-trifluoromethyl-benzenesulfonylamino)-6,7,8,9-tetrahydro-5H-benzocyclohepten-1-yloxy]-acetic acid]"
13,2610,"O=C(O)COc1cccc2c1CCCCC2NS(=O)(=O)c1cccc(-c2ccccc2)c1 (centres unmarked) [Example 3, [5-(Biphenyl-3-sulfonylamino)-6,7,8,9-tetrahydro-5H-benzocyclohepten-1-yloxy]-acetic acid]"
14,13,"CC(C)c1cccc(-c2ccc(S(=O)(=O)NC3CCCCc4c(OCC(=O)O)cccc43)cc2)c1 (centres unmarked) [Example 19, [5-(3′-Isopropyl-biphenyl-4-sulfonylamino)-6,7,8,9-tetrahydro-5H-benzocyclohepten-1-yloxy]-acetic acid]"
15,34.7,"Cc1cc(-c2ccc(S(=O)(=O)NC3CCCCc4c(OCC(=O)O)cccc43)cc2)cc(C(C)(C)C)c1 (centres unmarked) [Example 21, [5-(3′-tert-Butyl-5′-methyl-biphenyl-4-sulfonylamino)-6,7,8,9-tetrahydro-5H-benzocyclohepten-1-yloxy]-acetic acid]"
16,1500,"Cc1cncc(-c2ccc(S(=O)(=O)N(C)C3CCCCc4c(OCC(=O)O)cccc43)cc2)c1 (centres unmarked) [Example 26, (5-{Methyl-[4-(5-methyl-pyridin-3-yl)-benzenesulfonyl]-amino}-6,7,8,9-tetrahydro-5H-benzocyclohepten-1-yloxy)-acetic acid]"
17,199,"CC(C)c1cc(C(F)(F)F)cc(S(=O)(=O)N(C)C2CCCCc3c(OCC(=O)O)cccc32)c1 (centres unmarked) [Example 44, {5-[(3-Isopropyl-5-trifluoromethyl-benzenesulfonyl)-methyl-amino]-6,7,8,9-tetrahydro-5H-benzocyclohepten-1-yloxy}-acetic acid]"
18,123,"CC(C)c1cccc(-c2ccc(S(=O)(=O)N(C)C3CCCCc4c(OCC(=O)O)cccc43)nc2)c1 (centres unmarked) [Example 32, (5-{[5-(3-Isopropyl-phenyl)-pyridine-2-sulfonyl]-methyl-amino}-6,7,8,9-tetrahydro-5H-benzocyclohepten-1-yloxy)-acetic acid]"
19,603,"CSc1cccc(-c2ccc(S(=O)(=O)N(C)C3CCCCc4c(OCC(=O)O)cccc43)cc2)c1 (centres unmarked) [Example 28, {5-[Methyl-(3′-methylsulfanyl-biphenyl-4-sulfonyl)-amino]-6,7,8,9-tetrahydro-5H-benzocyclohepten-1-yloxy}-acetic acid]"
20,11.4,"CS(=O)(=O)c1cc(C(F)(F)F)cc(S(=O)(=O)NC2CCCCc3c(OCC(=O)O)cccc32)c1 (centres unmarked) [Example 17, [5-(3-Methanesulfonyl-5-trifluoromethyl-benzenesulfonylamino)-6,7,8,9-tetrahydro-5H-benzocyclohepten-1-yloxy]-acetic acid]"
21,1490,"O=C(O)COc1cccc2c1CCCCC2NS(=O)(=O)c1cc(C(F)(F)F)cc(C(F)(F)F)c1 (single isomer, unassigned) [Example 45, [5-(3,5-Bis-trifluoromethyl-benzenesulfonylamino)-6,7,8,9-tetrahydro-5H-benzocyclohepten-1-yloxy]-acetic acid]"
22,750,"CN(C1CCCCc2c(OCC(=O)O)cccc21)S(=O)(=O)c1ccc(-c2ccccc2)cc1 (centres unmarked) [Example 12, {5-[(Biphenyl-4-sulfonyl)-methyl-amino]-6,7,8,9-tetrahydro-5H-benzocyclohepten-1-yloxy}-acetic acid]"
23,11.4,"CN(C1CCCCc2c(OCC(=O)O)cccc21)S(=O)(=O)c1cc(C(F)(F)F)cc(S(C)(=O)=O)c1 (centres unmarked) [Example 18, {5-[(3-Methanesulfonyl-5-trifluoromethyl-benzenesulfonyl)-methyl-amino]-6,7,8,9-tetrahydro-5H-benzocyclohepten-1-yloxy}-acetic acid]"

# — US20120309796A1, “BENZOCYCLOHEPTENE ACETIC ACIDS” (priority 2011, published 2012)
